Measured values as given in PubChem BioAssay AID602267 (Broad Institute, 2012).
Calls of active or inactive are those of the source.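 The calls were made as follows: active = signal falls with dose and the fitted half-maximal concentration is at or below twice the top valid tested dose; inconclusive = flat curve with 30 to 70% inhibition, or poor fit; inactive = wrong direction, flat within 30%, or potency beyond limit.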

Molecular target: Golgi-associated PDZ and coiled-coil motif-containing protein (Homo sapiens) (UniProt Q9HD26)
Experiment: CAL PDZ domain peptide-binding inhibitors, dose response, biochemical, fluorescence polarization, untagged CAL PDZ, cherry-pick (AID 602267)
Details: purified CAL PDZ, TMR-peptide fluorescence polarization, 1 h

SMILES | activity change, negative = inhibition (at 50 µM (top of the series)) | other results
Cc1ccc(C(C)NC(=O)Cc2cccs2)c(C)c1 (configuration not stated) | inactive | 
COCCCNC(=O)c1cc(S(=O)(=O)N2CCOCC2)ccc1SCc1cccc(OC)c1OC | inactive | 
CCOC(=O)c1ccc(N=C2SC(C(=O)NC)CC(=O)N2Cc2ccc(F)cc2)cc1 (configuration not stated) | inactive | 
Cc1sc(NC(=O)c2ccco2)c(C(Nc2ccccn2)c2ccccc2)c1C (configuration not stated) | inactive | 
Cc1cc(NC(=O)Cc2ccc(Br)cc2)no1 | inactive | 
Oc1ccccc1N=Cc1c(O)ccc2oc3c(c12)CCCC3 |  | activity change, negative = inhibition (at 16 µM (top of the series)): inactive
CCN(CC(=O)Nc1cc(Cl)cc(Cl)c1)CC(=O)NC1CCS(=O)(=O)C1 (configuration not stated) | inactive | 
O=C(O)c1ccc(S(=O)(=O)c2ccc3c(c2)C(=O)N(c2ccccc2[N+](=O)[O-])C3=O)cc1 | inactive | 
C/C(=N/N1CCN(c2ccccn2)CC1)c1ccc([N+](=O)[O-])cc1 | inactive | 
CCNC(=S)N1CCc2cc(OC)c(OC)cc2C1COc1ccc(OC)cc1 (configuration not stated) | inactive | 
COC(=O)[C@H]1[C@H]2C[C@@H]3c4[nH]c5cc(OC)ccc5c4CCN3C[C@H]2C[C@@H](OC(=O)/C=C/c2cc(OC)c(OC)c(OC)c2)[C@@H]1OC | inactive | 
Nc1ccc(N(CCO)CCO)cc1 | inactive | 
CC(NS(=O)(=O)c1ccc(Cl)c(Cl)c1)C(=O)OCC(=O)Nc1ccc2c(c1)OCO2 (configuration not stated) | inactive | 
CCc1nnc(NS(=O)(=O)c2ccc(NC(=O)CCC(=O)O)cc2)s1 | inactive | 
C[C@H](NC(=O)c1ccccc1Cl)C(=O)NCc1cccs1 | inactive | 
Cc1cc(/C=C2\SC(=O)N(C)C2=O)c(C)n1-c1ccc(O)cc1 | inactive | 
O=c1[nH]c(CN2CC=C(c3ccccc3)CC2)nc2scc(-c3ccccc3)c12 |  | activity change, negative = inhibition (at 16 µM (top of the series)): inactive
O=[N+]([O-])c1ccccc1/C=N/Nc1nc(N2CCCC2)nc(N2CCCC2)n1 | inactive | 
CCOc1ccc(S(=O)(=O)Nc2cc(SCC(=O)O)c(O)c3ccccc23)cc1 |  | AC50: 39 µM
CCOc1ccc(C2=Nn3c(nnc3-c3ccco3)SC2)cc1 | inactive | 
CCOC(=O)NC(=O)COC(=O)CCCSc1nc2ccccc2s1 | inactive | 
CCOc1ccc(C(=O)NC2CC3CCCC(C2)N3Cc2ccccc2)cc1 (configuration not stated) | inactive | 
COc1cc(C(=O)ON=C2C(C)=CC(=O)C=C2C)cc(OC)c1OC | inactive | 

SMILES | activity change, negative = inhibition (at 50 µM (top of the series)) | other results
O=C(O)CC1(CC(=O)Nc2ccc(Br)cc2)CCCCC1 | inactive | 
Cc1c(Cl)c(C(=O)N2CCCC2)nn1C | inactive | 
CCC(C)NC(=O)C1CCCN(C(=O)Nc2ccc(F)cc2)C1 (configuration not stated) | inactive | 
O=C(OCC(=O)N1CCc2ccccc2C1)c1cccnc1Cl | inactive | 
O=C(NCc1ccccn1)Nc1ccc(F)c(Cl)c1 | inactive | 
Cc1c(C(=O)OCC(=O)NC(=O)NC2CCCCC2)cccc1[N+](=O)[O-] | inactive | 
CCn1c(=O)c(C(C)=O)c(O)c2ccccc21 | inactive | 
N#C/C(=C\c1c[nH]c2ccccc12)C(=O)NC1CC1 | inactive | 
COc1cc(N(C)C)ccc1C=c1c2ccccc2n2c1cc(-c1ccccc1)[n+]2C | inactive | 
CCc1ccc(S(=O)(=O)/N=C2/C=C(Sc3ncn[nH]3)C(=O)c3ccccc32)cc1 |  | AC50: 16.4 µM
CCOC(=O)C1CCN(C(=O)C2CC(=O)N(c3ccc4c(c3)OCCO4)C2)CC1 (configuration not stated) | inactive | 
CC(C)CNC(=O)CN1C(=O)NC(Cc2c[nH]c3ccccc23)C1=O (configuration not stated) | inactive | 
Cc1sc2ncn(CC(=O)NCCCC(=O)N3CCN(Cc4ccc5c(c4)OCO5)CC3)c(=O)c2c1C | inactive | 
O=C(O)CSc1cc(NS(=O)(=O)c2ccc(Br)cc2)c2ccccc2c1O |  | AC50: 29.7 µM
Cc1cc(=O)n2c3ccccc3n(CC(O)CN3CCN(CCO)CC3)c2c1C#N (configuration not stated) | inactive | 
CCOC(=O)CCNC(=O)N1CCCC(CNS(=O)(=O)Cc2ccccc2)C1 (configuration not stated) | inactive | 
CC12CCC(C(=O)N(CCCN3CCN(Cc4ccccc4)CC3)C1=O)C2(C)C (configuration not stated) | inactive | 
COc1cc(/C=C2\C(=O)NC(=O)N(c3ccccc3)C2=O)c([N+](=O)[O-])cc1OC | inactive | 
CCN(CC)CCC(=O)N1c2ccccc2CCc2ccc(NC(=O)OC(C)C)cc21 | inactive | 
CC1=NN(C(N)=S)C(=O)C1N=Nc1ccc(Cl)cc1 (configuration not stated) | inactive | 
COc1ccc(CSc2ncnc3sccc23)cc1F | inactive | 
CCOc1c(Cl)cc(CNc2nnnn2C)cc1OC | inactive | 
Cc1ccccc1S(=O)(=O)NC(=NCc1ccc(F)cc1)c1ccccc1 | inactive | 

SMILES | activity change, negative = inhibition (at 50 µM (top of the series)) | other results
Cc1cccc(N(Cc2cc(=O)[nH]c3ccccc23)C(=O)C(C)C)c1 | inactive | 
CCCCNC(=S)NNc1c(Cl)cc(Cl)cc1Cl | inactive | 
Cc1ccc(/C=N/NC(=O)NN(C)c2ncc(C(F)(F)F)cc2Cl)cc1 | inactive | 
COc1ccc(/C=N/NC(=O)c2cccc(C(F)(F)F)c2)cc1 | inactive | 
O=C(CCc1nc(-c2ccc(Cl)cc2)no1)NC1CCCCC1 | inactive | 
O=C(CCN1C(=O)c2ccccc2C1=O)CN1CCOCC1 | inactive | 
O=C(COC(=O)c1cccnc1Cl)Nc1ccc2c(c1)OCO2 | inactive | 
O=C(c1c(Cl)cccc1Cl)N1CCCCCC1 | inactive | 
Cc1ccc(F)cc1N=Cc1c(O)c2ccccc2oc1=O | inactive | 
O=C(c1ccccc1)c1c2c(cc3sc4ccccc4[n+]13)-c1cccc3cccc-2c13 | inactive | 
O=C(O)c1ccc(Oc2cc(Oc3ccc(C(=O)O)cc3)cc([N+](=O)[O-])c2)cc1 | inactive | 
CCNC(=S)N(CCN(CC)CC)Cc1cc2cc3c(cc2[nH]c1=O)OCCO3 | inactive | 
CCc1nc2ccccc2c(C(=O)Oc2cccc3cccnc23)c1C | inactive | 
O=C(NC(Cc1c[nH]c2ccccc12)C(=O)O)/C(=C/c1ccc(F)cc1)NC(=O)c1ccccc1 (configuration not stated) | inactive | 
CC(=O)N1CCN(c2ccc(NC(=O)C(c3ccccc3)c3ccccc3)cc2)CC1 | inactive | 
CC1CCC(NS(=O)(=O)c2ccc3c(c2)n(C)c(=O)c(=O)n3C)CC1 (configuration not stated) | inactive | 
CC1CCCN(C(=O)Cc2cccc3ccccc23)C1 (configuration not stated) | inactive | 
Cc1ccc(-c2[nH]c3ccccc3c2SCCN)cc1 | inactive | 
COc1ccc(C(=O)Nc2ccc(S(=O)(=O)N3CCCC3)cc2)cc1[N+](=O)[O-] | inactive | 
O=C1CC(c2ccccc2)=C(c2ccccc2)C1 | inactive | 
Cc1ccc(S(=O)(=O)N2CCN(C(=O)N(C)C)CC2)cc1 | inactive | 
Cc1nc(Cl)sc1C(=O)Nc1cc(F)cc(F)c1 | inactive | 
COc1ccc2c(c1)c(=Cc1ccc(N(C)C)cc1)c1cc(-c3ccccc3)[n+](C)n12 |  | activity change, negative = inhibition (at 16 µM (top of the series)): inactive

SMILES | activity change, negative = inhibition (at 50 µM (top of the series)) | other results
COc1ccc(C(=O)NC2(C(F)(F)F)C(=O)Nc3c2c(=O)[nH]c(=O)n3CCc2ccc(OC)c(OC)c2)cc1 (configuration not stated) | inactive | 
CCCCN(CCCC)CCNC(=O)c1ccc2nc(-c3ccccc3NC(C)=O)c(=O)[nH]c2c1 | inactive | 
COc1ccc(CC(=O)NCC2CCCN(Cc3cccc(SC)c3)C2)cc1 (configuration not stated) | inactive | 
Cc1cc(SC2CCOC2=O)nc2ccccc12 (configuration not stated) | inactive | 
COc1ccc(C(CNC(=O)COc2ccccc2-c2ccccc2)N2CCOCC2)cc1 (configuration not stated) | inactive | 
O=C(NCc1ccccc1Cl)C1CC(=O)N(Cc2ccccc2)C1 (configuration not stated) | inactive | 
O=C(O)CSc1cc(NS(=O)(=O)c2cccc([N+](=O)[O-])c2)c2ccccc2c1O |  | AC50: 15.9 µM
Cc1ccc(S(=O)(=O)N2CCN(CCC#N)CC2)cc1 | inactive | 
Cc1ccc(CNC2CCCCC2)s1 | inactive | 
CN(C)c1ccc(C=c2c3cc(O)ccc3n3c2cc(-c2ccccc2)[n+]3C)cc1 | inactive | 
CC(C)CNC(=O)COC(=O)CCC(=O)c1ccc(Cl)cc1 | inactive | 
COc1ccccc1Oc1coc2cc(OC(=O)N3CCOCC3)ccc2c1=O | inactive | 
CCN(CC)CCn1c(SCC(=O)NCc2ccccc2)nc2c(sc3ccccc32)c1=O | inactive | 
O=C(NCC1CCCO1)c1cn(-c2ccccc2)nc1-c1ccc(F)cc1 (configuration not stated) | inactive | 
CC(O)CNCCCOc1cccc(Oc2ccccc2)c1 (configuration not stated) | inactive | 
CCOC(=O)CCC(=O)Nc1ccc(S(=O)(=O)N2CCC(C)CC2)cc1 | inactive | 
CC(C)n1cc(C(=O)N2CCCC(N3CCN(c4ccc(F)cc4)CC3)C2)cn1 (configuration not stated) | inactive | 
CCCCOc1ccc(C(=O)N2CCNC(=O)C2CC(=O)OC(C)C)cc1 (configuration not stated) | inactive | 
CC(C)c1ccc(CNC(=O)C(=O)NCCCn2ccnc2)cc1 | inactive | 
CCOc1ccc2c(c1)C(NC(C)=O)C(=O)N2CCN1CCOCC1 (configuration not stated) |  | AC50: > 100 µM (inactive)
CCCOc1ccc(CC(=O)N/N=C\c2ccc(F)cc2)cc1 | inactive | 
CC1CCCC(C)N1/N=C/c1ccc(N(C)C)cc1 (configuration not stated) | inactive | 
CCNc1ccc2noc3c2c1C(=O)c1ccccc1-3 |  | AC50: 4.74 µM
